# Reference: ChEMBL document CHEMBL1158249, “Cytotoxic falcarinol oxylipins from Dendropanax arboreus” (J Nat Prod, 1996)
# Calls of active or inactive are those of the source. No cut-off for these calls is given here.
# Key:
# Mus musculus [1] = assay: Toxicity against human LOX cells xenografted athymic nude mouse assessed as median day of death at 0.39 mg/kg, ip administered daily for 5 days; assay type: organism-based; design: dose 0.39 mg/kg, route intraperitoneal; details: in vivo, 120 h
# [2] = Cytotoxicity against human NCI60 cells; assay type: functional
# LOX [3] = assay: Antitumor activity against human LOX cells xenografted athymic nude mouse at 0.26 mg/kg, ip administered daily for 5 days; assay type: functional, organism-based; design: dose 0.26 mg/kg
# Mus musculus [4] = assay: Toxicity against human LOX cells xenografted athymic nude mouse assessed as median day of death at 0.88 mg/kg, ip administered daily for 5 days; assay type: organism-based; design: dose 0.88 mg/kg, route intraperitoneal; details: in vivo, 120 h
# LOX [5] = assay: Antitumor activity against human LOX cells xenografted athymic nude mouse at 0.88 mg/kg, ip administered daily for 5 days; assay type: functional, organism-based; design: dose 0.88 mg/kg
# LOX [6] = assay: Antitumor activity against human LOX cells xenografted athymic nude mouse at 6.0 mg/kg, ip administered daily for 5 days; assay type: functional, organism-based; design: dose 6 mg/kg
# Mus musculus [7] = assay: Toxicity against human LOX cells xenografted athymic nude mouse assessed as median day of death at 2.0 mg/kg, ip administered daily for 5 days; assay type: organism-based; design: dose 2 mg/kg, route intraperitoneal; details: in vivo, 120 h
# LOX [8] = assay: Antitumor activity against human LOX cells xenografted athymic nude mouse at 0.39 mg/kg, ip administered daily for 5 days; assay type: functional, organism-based; design: dose 0.39 mg/kg
# LOX [9] = assay: Antitumor activity against human LOX cells xenografted athymic nude mouse at 0.59 mg/kg, ip administered daily for 5 days; assay type: functional, organism-based; design: dose 0.59 mg/kg
# Mus musculus [10] = assay: Toxicity against human LOX cells xenografted athymic nude mouse assessed as median day of death at 3.0 mg/kg, ip administered daily for 5 days; assay type: organism-based; design: dose 3 mg/kg, route intraperitoneal; details: in vivo, 120 h
# [11] = Antitumor activity against human LOX cells xenografted athymic nude mouse assessed as increase in life span at 1.33 mg/kg, ip administered daily for 5 days; assay type: functional; details: route intraperitoneal
# Mus musculus [12] = assay: Toxicity against human LOX cells xenografted athymic nude mouse assessed as median day of death at 1.33 mg/kg, ip administered daily for 5 days; assay type: organism-based; design: dose 1.33 mg/kg, route intraperitoneal; details: in vivo, 120 h
# LOX [13] = assay: Antitumor activity against human LOX cells xenografted athymic nude mouse at 3.0 mg/kg, ip administered daily for 5 days; assay type: functional, organism-based; design: dose 3 mg/kg
# Mus musculus [14] = assay: Toxicity against human LOX cells xenografted athymic nude mouse assessed as median day of death at 0.26 mg/kg, ip administered daily for 5 days; assay type: organism-based; design: dose 0.26 mg/kg, route intraperitoneal; details: in vivo, 120 h
# LOX [15] = assay: Antitumor activity against human LOX cells xenografted athymic nude mouse at 2.0 mg/kg, ip administered daily for 5 days; assay type: functional, organism-based; design: dose 2 mg/kg
# Mus musculus [16] = assay: Toxicity against human LOX cells xenografted athymic nude mouse assessed as median day of death at 6.0 mg/kg, ip administered daily for 5 days; assay type: organism-based; design: dose 6 mg/kg, route intraperitoneal; details: in vivo, 120 h
# LOX [17] = assay: Antitumor activity against human LOX cells xenografted athymic nude mouse at 1.33 mg/kg, ip administered daily for 5 days; assay type: functional, organism-based; design: dose 1.33 mg/kg
# Mus musculus [18] = assay: Toxicity against human LOX cells xenografted athymic nude mouse assessed as median day of death at 0.59 mg/kg, ip administered daily for 5 days; assay type: organism-based; design: dose 0.59 mg/kg, route intraperitoneal; details: in vivo, 120 h
# [19] = Antitumor activity against human LOX cells xenografted athymic nude mouse assessed as increase in life span at 0.59 mg/kg, ip administered daily for 5 days; assay type: functional; details: route intraperitoneal
# LOX [20] = assay: Antitumor activity against human LOX cells xenografted athymic nude mouse at 7.03 mg/kg, ip administered daily for 5 days; assay type: functional, organism-based; design: dose 7.03 mg/kg
# Mus musculus [21] = assay: Toxicity against human LOX cells xenografted athymic nude mouse assessed as median day of death at 0.17 mg/kg, ip administered daily for 5 days; assay type: organism-based; design: dose 0.17 mg/kg, route intraperitoneal; details: in vivo, 120 h
# LOX [22] = assay: Antitumor activity against human LOX cells xenografted athymic nude mouse at 112.5 mg/kg, ip administered daily for 5 days; assay type: functional, organism-based; design: dose 112.5 mg/kg
# Mus musculus [23] = assay: Toxicity against human LOX cells xenografted athymic nude mouse assessed as median day of death at 112.5 mg/kg, ip administered daily for 5 days; assay type: organism-based; design: dose 112.5 mg/kg, route intraperitoneal; details: in vivo, 120 h
# Mus musculus [24] = assay: Toxicity against human LOX cells xenografted athymic nude mouse assessed as median day of death at 1.76 mg/kg, ip administered daily for 5 days; assay type: organism-based; design: dose 1.76 mg/kg, route intraperitoneal; details: in vivo, 120 h
# Mus musculus [25] = assay: Toxicity against human LOX cells xenografted athymic nude mouse assessed as median day of death at 28.12 mg/kg, ip administered daily for 5 days; assay type: organism-based; design: dose 28.12 mg/kg, route intraperitoneal; details: in vivo, 120 h
# LOX [26] = assay: Antitumor activity against human LOX cells xenografted athymic nude mouse at 3.51 mg/kg, ip administered daily for 5 days; assay type: functional, organism-based; design: dose 3.51 mg/kg
# LOX [27] = assay: Antitumor activity against human LOX cells xenografted athymic nude mouse at 1.76 mg/kg, ip administered daily for 5 days; assay type: functional, organism-based; design: dose 1.76 mg/kg
# LOX [28] = assay: Antitumor activity against human LOX cells xenografted athymic nude mouse at 0.17 mg/kg, ip administered daily for 5 days; assay type: functional, organism-based; design: dose 0.17 mg/kg
# Mus musculus [29] = assay: Toxicity against human LOX cells xenografted athymic nude mouse assessed as median day of death at 7.03 mg/kg, ip administered daily for 5 days; assay type: organism-based; design: dose 7.03 mg/kg, route intraperitoneal; details: in vivo, 120 h
# [30] = Antitumor activity against human LOX cells xenografted athymic nude mouse assessed as increase in life span at 0.88 mg/kg, ip administered daily for 5 days; assay type: functional; details: route intraperitoneal
# [31] = Antitumor activity against human LOX cells xenografted athymic nude mouse assessed as increase in life span at 0.17 mg/kg, ip administered daily for 5 days; assay type: functional; details: route intraperitoneal
# Mus musculus [32] = assay: Toxicity against human LOX cells xenografted athymic nude mouse assessed as median day of death at 3.51 mg/kg, ip administered daily for 5 days; assay type: organism-based; design: dose 3.51 mg/kg, route intraperitoneal; details: in vivo, 120 h
# Mus musculus [33] = assay: Toxicity against human LOX cells xenografted athymic nude mouse assessed as median day of death at 14.06 mg/kg, ip administered daily for 5 days; assay type: organism-based; design: dose 14.06 mg/kg, route intraperitoneal; details: in vivo, 120 h
# Mus musculus [34] = assay: Toxicity against human LOX cells xenografted athymic nude mouse assessed as median day of death at 225 mg/kg, ip administered daily for 5 days; assay type: organism-based; design: dose 225 mg/kg, route intraperitoneal; details: in vivo, 120 h
# Mus musculus [35] = assay: Toxicity against human LOX cells xenografted athymic nude mouse assessed as median day of death at 56.25 mg/kg, ip administered daily for 5 days; assay type: organism-based; design: dose 56.25 mg/kg, route intraperitoneal; details: in vivo, 120 h
# LOX [36] = assay: Antitumor activity against human LOX cells xenografted athymic nude mouse at 28.12 mg/kg, ip administered daily for 5 days; assay type: functional, organism-based; design: dose 28.12 mg/kg
# LOX [37] = assay: Antitumor activity against human LOX cells xenografted athymic nude mouse at 225 mg/kg, ip administered daily for 5 days; assay type: functional, organism-based; design: dose 225 mg/kg
# LOX [38] = assay: Antitumor activity against human LOX cells xenografted athymic nude mouse at 14.06 mg/kg, ip administered daily for 5 days; assay type: functional, organism-based; design: dose 14.06 mg/kg
# [39] = Antitumor activity against human LOX cells xenografted athymic nude mouse assessed as increase in life span at 1.76 mg/kg, ip administered daily for 5 days; assay type: functional; details: route intraperitoneal
# [40] = Antitumor activity against human LOX cells xenografted athymic nude mouse assessed as increase in life span at 2.0 mg/kg, ip administered daily for 5 days; assay type: functional; details: route intraperitoneal
# [41] = Antitumor activity against human LOX cells xenografted athymic nude mouse assessed as increase in life span at 3.0 mg/kg, ip administered daily for 5 days; assay type: functional; details: route intraperitoneal
# LOX [42] = assay: Antitumor activity against human LOX cells xenografted athymic nude mouse at 56.25 mg/kg, ip administered daily for 5 days; assay type: functional, organism-based; design: dose 56.25 mg/kg
# [43] = Antitumor activity against human LOX cells xenografted athymic nude mouse assessed as increase in life span at 0.26 mg/kg, ip administered daily for 5 days; assay type: functional; details: route intraperitoneal
smiles,measurement,setting,value
C=CCCCCC/C=C\[C@H](O)C#CC#C[C@@H](O)C=C,Activity,Mus musculus [1],14.5 days
same,GI50,[2],2.1 µM
same,LC50,[2],10 µM
same,TGI,[2],3 µM
same,Activity,LOX [3],inactive
same,Activity,Mus musculus [4],14 days
same,Activity,LOX [5],inactive
same,Activity,LOX [6],inactive
same,Activity,Mus musculus [7],14 days
same,Activity,LOX [8],inactive
same,Activity,LOX [9],inactive
same,Activity,Mus musculus [10],14.5 days
same,Activity,[11],3%
same,Activity,Mus musculus [12],15.5 days
same,Activity,LOX [13],inactive
same,Activity,Mus musculus [14],15 days
same,Activity,LOX [15],inactive
same,Activity,Mus musculus [16],15 days
same,Activity,LOX [17],inactive
same,Activity,Mus musculus [18],15 days
C=C[C@@H](O)C#CC#C[C@@H](O)/C=C\CCCCCCC [FALCARINDIOL],GI50,[2],0.66 µM
same,TGI,[2],2.2 µM
C=CCCCCCC(O)/C=C/C#CC#C[C@@H](O)C=C (stereo not given in full) [DENDROARBOREOL B],GI50,[2],0.5 µM
same,LC50,[2],7.6 µM
same,TGI,[2],1.9 µM
C=C[C@H](O)C#CC#C/C=C/C(O)CCCCCCC (stereo not given in full),GI50,[2],0.44 µM
same,LC50,[2],4.7 µM
same,TGI,[2],1.4 µM
C=C[C@H](O)C#CC#CC/C=C\CCCCCCC [FALCARINOL],Activity,[19],13%
same,Activity,LOX [20],Active
same,Activity,Mus musculus [21],21 days
same,Activity,LOX [22],Active
same,Activity,Mus musculus [23],3 days
same,Activity,Mus musculus [24],22 days
same,Activity,Mus musculus [25],4 days
same,Activity,Mus musculus [1],19 days
same,Activity,LOX [26],Active
same,Activity,LOX [27],inactive
same,GI50,[2],0.22 µM
same,LC50,[2],3.8 µM
same,TGI,[2],0.76 µM
same,Activity,Mus musculus [4],22 days
same,Activity,LOX [5],inactive
same,Activity,LOX [28],inactive
same,Activity,Mus musculus [29],5.5 days
same,Activity,Mus musculus [7],19.5 days
same,Activity,[30],5%
same,Activity,LOX [8],inactive
same,Activity,[31],5%
same,Activity,Mus musculus [32],6.5 days
same,Activity,LOX [9],inactive
same,Activity,Mus musculus [33],4.5 days
same,Activity,Mus musculus [34],2 days
same,Activity,Mus musculus [10],20 days
same,Activity,Mus musculus [35],3 days
same,Activity,Mus musculus [12],20 days
same,Activity,LOX [13],inactive
same,Activity,LOX [36],Active
same,Activity,LOX [37],Active
same,Activity,LOX [15],inactive
same,Activity,LOX [38],Active
same,Activity,[39],5%
same,Activity,[40],7%
same,Activity,LOX [17],inactive
same,Activity,[41],13%
same,Activity,Mus musculus [18],22.5 days
same,Activity,LOX [42],Active
C=CCCCCC/C=C\[C@H](O)C#CC#C[C@@H](O)CC [DENDROARBOREOL A],GI50,[2],4.6 µM
same,LC50,[2],25 µM
same,TGI,[2],14 µM
C=CCCCCC/C=C\CC#CC#C[C@@H](O)C=C,Activity,[19],20%
same,Activity,Mus musculus [21],15 days
same,Activity,Mus musculus [1],15 days
same,GI50,[2],0.4 µM
same,LC50,[2],4.8 µM
same,TGI,[2],1.3 µM
same,Activity,LOX [3],inactive
same,Activity,Mus musculus [4],15 days
same,Activity,LOX [5],inactive
same,Activity,LOX [28],inactive
same,Activity,Mus musculus [7],16 days
same,Activity,[30],13%
same,Activity,LOX [8],inactive
same,Activity,LOX [9],inactive
same,Activity,Mus musculus [10],18 days
same,Activity,[11],20%
same,Activity,Mus musculus [12],15 days
same,Activity,LOX [13],inactive
same,Activity,Mus musculus [14],18 days
same,Activity,LOX [15],inactive
same,Activity,[40],27%
same,Activity,[43],20%
same,Activity,LOX [17],inactive
same,Activity,[41],47%
same,Activity,Mus musculus [18],15 days
